Legend:
Type in all cases: cell-based
[1] = tested on: Rat corneal epithelial cell; assay: Cell protective effect: cell survival during preservation (trypan blue excretion test); conditions: for Average survival rate after preservation for 7 days / Average survival rate at 72 hours: refrigerator 4° C.; for Average survival rate after preservation for 24 hours / Average survival rate at 24 hours: normal temperature (22° C.)
Protocol: (§1) Using a normal serum-free cell culture solution without FBS or a Ringer's solution (Otsuka Pharmaceutical Co., Ltd., Lactec Injection, Japanese Pharmacopoeia, Sodium L-lactate Ringer's solution) as a conditioning solution for use, for example, in preservation and transportation of cells, sodium alginate (Na alginate) (Fuji Chemical Industry Co., Ltd. Snow Algin SSL, viscosity of 1% aqueous solution is 30 mPa·s at 20° C.) was added to the conditioning solution in the concentrations shown in Table 1 to prepare cell preservation solutions. To each cell preservation solution, the above-described cells were added at a concentration of 10^6 cells/ml to satisfy the conditions shown in Table 1, and the resultant solution was left to stand in a room at normal temperature (22° C.) for 24 hours, and then whether cells were alive or dead was determined, and rates of viable cells (average survival rate (%)) were calculated and compared. Cell viability was determined by the trypan blue excretion test that is the ordinary method of confirming cell viability. The excretion test was performed according to the method described in “Denizot F., et al., Rapid colorimetric assay for cell growth and survival. Modifications to the tetrazolium dye procedure giving improved sensitivity and reliability. J. Immunol. Methods, 89, 271-277 (1986)”. The results are of N=4.
(§2) The average survival rate (%) was determined in the same manner as in Experimental Example (1-1-1) except that the preservation conditions were changed to leaving still for 72 hours in a refrigerator at a set temperature of 4° C. The results are of N=4.
The average survival rate (%) of cells was determined in the same manner as in Experimental Example (1-1-1) except that dextran sulfate (dextran sulfate special grade reagent available from NACALAI TESQUE, INC.) was used instead of sodium alginate and the conditions were as shown in Table 3. The results are of N=4.
The average survival rate (%) of cells was determined in the same manner as in Experimental Example (1-2-1) except that the preservation conditions were changed to leaving still for 72 hours in a refrigerator at a set temperature of 4° C. and to conditions shown in Table 4. The results are of N=3 in the case of using a serum-free cell culture solution, and are of N=4 in the case of using a Ringer's solution.
The average survival rate (%) of cells was determined in the same manner as in Experimental Example (1-1-1) except that heparin sodium (Heparin Na Mochida, unfractionated heparin, available from Mochida Pharmaceutical Co., Ltd.) was used instead of alginic acid and the conditions were as shown in Table 5. The results are of N=4.
The average survival rate (%) of cells was determined in the same manner as in Experimental Example (1-3-1) except that the preservation conditions were changed to leaving still for 72 hours in a refrigerator at a set temperature of 4° C. and to conditions shown in Table 6. The results are of N=4.
The average survival rate (%) of cells was determined in the same manner as in Experimental Example (1-3-2) except that urinastatin (Miraclid injection solution, containing 2.5 million units, available from Mochida Pharmaceutical Co., Ltd.) was used as a proteolytic enzyme inhibitor instead of heparin sodium and the conditions were as shown in Table 7. The results are of N=4. “Unit (U)” in the unit of concentration (units/mL) of inhibitor a in Table 7 can be measured, for example, by the quantitative method of urinastatin in the Japanese Pharmacopoeia 15th revision. Specifically, absorbance at 405 nm of a sample solution is measured with a UV 240 spectrophotometer, and concentration of urinastatin can be calculated from a calibration curve prepared in advance. […]

[2] = tested on: rat corneal epithelial cells; assay: Cell detaching and suspending effect (Experimental Example 4); conditions: dextran aqueous solution (MW 35000-50000), concentrations shown in Table 13; observed over time
Protocol: A culture solution in which FBS was added to a normal serum-free cell culture solution in a concentration of 10% (10% FBS cell culture solution) was prepared in a culture dish. To this, rat corneal epithelial cells were added at 10^6 cells/ml and cultured for 24 hours under normal cell culture conditions (37° C., CO2 concentration of 5%, humidity of 100%) to make the cultured cells fully adhere to the culture dish wall which is a scaffold.
The culture solution in the culture dish on which cultured cells obtained as described above had adhered was replaced with each of dextran sulfate aqueous solutions and a dextran aqueous solution, which are respectively obtained by dissolving dextran sulfate (Dextran sodium sulfate MW 36000-50000, available from FUJIFILM Wako Pure Chemical Corporation) and dextran (Dextran MW 35000-50000, available from FUJIFILM Wako Pure Chemical Corporation) in purified water and have concentrations shown in Table 13, and the resultant culture solutions were continuously cultured under normal cell culture conditions (37° C., CO2 concentration of 5%, humidity of 100%). For each adherent cell, detachment and suspension of adherent cells from the dish wall was observed over time. For determination of detachment and suspension, the culture dish was gently shaken manually to observe whether the cells were detached from the dish wall and suspended, and the case where 90% or more of the cells were detached and suspended was determined as detachment and suspension of adherent cells. The results are of N=4. In Table 13, “∘” means that the cells were detached and suspended, and “x” means that the cells were not detached and suspended.

[3] = tested on: Chinese hamster fibroblast; assay: Cell protective effect: cell survival during preservation (trypan blue excretion test); conditions: for Average survival rate at 24 hours / Average survival rate at 72 hours: Ringer's solution; for Average survival rate at 24 hours: normal temperature (22° C.); for Average survival rate at 72 hours: refrigerator 4° C.
Protocol: as §1, §2

[4] = tested on: Mouse malignant melanoma highly metastatic strain cell; assay: Cell protective effect: cell survival during preservation under refrigeration (trypan blue excretion test); conditions: inhibitor b 0.25 mg/mL; 5% glucose solution; refrigerator 4° C.
Protocol: Using a 5% glucose solution as a conditioning solution, nafamostat mesilate (Fusan for Injection, available from Nichi-Iko Corporation), which is a proteolytic enzyme inhibitor, was added to the conditioning solution in the concentrations shown in Table 8 (in Fusan for Injection (available from Nichi-Iko Corporation), use of a 5% glucose solution as a dilution solution is specified) to prepare cell preservation solutions. To each cell preservation solution, cells of mouse malignant melanoma high metastatic strain were added at a concentration of 10^6 cells/ml and left in a refrigerator set at 4° C. for 48 hours, and then the average survival rate (%) of cells was determined in the same manner as in Experimental Example of (1-4-1-1). The results are of N=4.

[5] = tested on: Rat corneal epithelial cell; assay: Cell dormancy effect: cell cycle analysis by flow cytometry; conditions: Na alginate 2.5 mg/mL (Wako first grade, 120 mPa·s); serum-free cell culture solution; cultured 48 hours at 37° C.
Protocol: Sodium alginate (sodium alginate first grade reagent, available from FUJIFILM Wako Pure Chemical Corporation, viscosity of 1% aqueous solution is 120 mPa·s at 20° C.), DS (the same as in Experimental Example 1), or sodium heparin (the same as in Experimental Example 1) was used as an active ingredient in the cell treatment agent, and whether cell dormancy occurs or not by action of the active ingredient was examined by comparing the activities of cell division and proliferation which are the most general cell activities in the following manner.
The cell cycle was analyzed by flow cytometry according to the method described in known literature (Piotr Pozarowski and Zbigniew Darzynkiewicz, “Analysis of Cell Cycle by Flow Cytometry,” Methods in Molecular Biology, vol. 281: Checkpoint Controls and Cancer, Volume 2), and frequency of cell division and proliferation was compared between different active ingredients of the cell treatment agent. A specific method is as follows. Using a normal serum-free cell culture solution as a conditioning solution (comparison reference (a)), (b) a cell preservation solution in which sodium alginate (Na alginate) is added to the conditioning solution in a concentration of 2.5 mg/ml, (c) a cell preservation solution in which DS is added to the conditioning solution in a concentration of 0.1 mg/ml, and (d) a cell preservation solution in which heparin sodium (heparin Na) is added to the conditioning solution in a concentration of 50 units/ml, were prepared. To these cell preservation solutions, rat corneal epithelial cells were added at a cell concentration of 10^5 cells/ml and cultured for 48 hours under normal cell culture conditions (37° C., CO2 concentration of 5%, humidity of 100%). The number of cells in each culture was determined by cell cycle analysis using flow cytometry to determine the number of cells in each cell cycle, and the percentage of cells in the S phase, G2 phase, and M phase, which are considered as the periods of the cell division and proliferation process, was compared with the percentage of cells in the G0 phase and G1 phase, which are considered as other periods. The results are of N=4.

[6] = Sodium alginate 2.5 mg/ml, Ringer's solution
[7] = Sodium alginate 50 mg/ml, Ringer's solution
[8] = Sodium alginate 0.5 mg/ml, Ringer's solution
[9] = Na alginate 0.63 mg/mL, Ringer's solution
[10] = Na alginate 0.63 mg/mL, serum-free cell culture solution
[11] = Na alginate 2.5 mg/mL, Ringer's solution
[12] = Na alginate 2.5 mg/mL, serum-free cell culture solution
[13] = Na alginate 5 mg/mL, serum-free cell culture solution

## sodium alginate [Sodium alginate 30 mPa · s (10% aqueous solution, 20° C.)]
[1]; [6]
  Average survival rate after preservation for 7 days: 54%
[1]; Sodium alginate 10 mg/ml, Ringer's solution
  Average survival rate after preservation for 7 days: 69%
[1]; Sodium alginate 20 mg/ml, Ringer's solution
  Average survival rate after preservation for 24 hours: 46%
[1]; [7]
  Average survival rate after preservation for 24 hours: 50%
  Average survival rate after preservation for 7 days: 72%

## dextran [reference compound]
[2]
  Detachment and suspension of adherent cells after replacement: not detached and suspended in any of the cases

## low molecular weight heparin sodium [reference compound]
[1]; rat corneal epithelial cells, same experiment as for heparin sodium, values not given
  Effect of improving cell viability (cell protective effect): the cell protective effect was observed
[3]; Chinese hamster fibroblasts, same preservation experiments, values not given
  Effect of improving cell viability (cell protective effect): the cell protective effect was observed

## sodium alginate [Sodium alginate 120 mPa · s (1% aqueous solution, 20° C.)]
[1]; Sodium alginate 0.1 mg/ml, Ringer's solution
  Average survival rate after preservation for 24 hours: 62%
[1]; [8]
  Average survival rate after preservation for 7 days: 53%
[1]; [6]
  Average survival rate after preservation for 24 hours: 59%
  Average survival rate after preservation for 7 days: 52%

## sodium alginate [Sodium alginate 30 mPa · s (1% aqueous solution, 20° C.)]
[1]; Sodium alginate 0.2 mg/ml, Ringer's solution
  Average survival rate after preservation for 24 hours: 50%
[1]; [8]
  Average survival rate after preservation for 7 days: 51%
[1]; Sodium alginate 1 mg/ml, Ringer's solution
  Average survival rate after preservation for 24 hours: 54%
[1]; [6]
  Average survival rate after preservation for 7 days: 56%

## N=C(N)c1ccc2cc(OC(=O)c3ccc(N=C(N)N)cc3)ccc2c1 [inhibitor b, nafamostat mesilate]
[4]
  Average survival rate at 48 hours: 43%

## sodium alginate [Na alginate]
[1]; [9]
  Average survival rate at 24 hours: 52%
  Average survival rate at 72 hours: 68%
[1]; [10]
  Average survival rate at 24 hours: 60%
  Average survival rate at 72 hours: 77%
[1]; Na alginate 1.25 mg/mL, Ringer's solution
  Average survival rate at 24 hours: 51%
[1]; [11]
  Average survival rate at 24 hours: 53%
  Average survival rate at 72 hours: 72%
[1]; [12]
  Average survival rate at 24 hours: 70%
  Average survival rate at 72 hours: 80%
[1]; Na alginate 5 mg/mL, Ringer's solution
  Average survival rate at 72 hours: 64%
[1]; [13]
  Average survival rate at 24 hours: 74%
  Average survival rate at 72 hours: 70%
[5]
  Percentages of cells of each cell cycle: G0 phase + G1 phase: 88.1%
  Percentages of cells of each cell cycle: S phase + G2 phase + M phase: 10.1%
[3]; Na alginate 0.63 mg/mL
  Average survival rate at 24 hours: 56%
  Average survival rate at 72 hours: 73%
[3]; Na alginate 1.25 mg/mL
  Average survival rate at 24 hours: 57%
[3]; Na alginate 2.5 mg/mL
  Average survival rate at 24 hours: 60%
  Average survival rate at 72 hours: 77%
[3]; Na alginate 5 mg/mL
  Average survival rate at 72 hours: 70%

B1: urinastatin (protein, UniProt P02760 206-352, looked up)
Inter-alpha-trypsin inhibitor …: AVLPQEEEGSGGGQLVTEVTKKEDSCQLGYSAGPCMGMTSRYFYNGTSMACETFQYGGCMGNGNNFVTEKECLQTCRTVAACNLPIVRGPCRAFIQLWAFDAVKGKCVLFPYGGCQGNGNKFYSEKECREYCGVPGDGDEELLRFSN
modifications: Inter-alpha-trypsin inhibitor light chain
[1]; inhibitor a 5 units/mL, Ringer's solution
  Average survival rate at 72 hours: 70%
